Measured values: patent publication US7868176B2, “Salts of N-(4-fluorobenzyl)-N-(1-methylpiperidin-4-y1)-N′-(4-(2-methylpropyloxy)phenylmethyl)carbamide and their preparation” (ACADIA Pharmaceuticals, Inc., priority 2004, dated 2011)
Converted amounts (≈) assume the structure as drawn. Structures can show the parent of a compound that is named as a salt. Blank lines part the entries; values can stand above or below the compound they belong to.

What was measured:
[1] = Approximate solubility in water; type: physicochemical
Experimental: The limit value of completely dissolved amount was determined. Determination of solubilities below 20 mg/l occurred with stirring suspensions in water, filtering off the excess, and measuring of the amount of substance in the filtrate.

[2] = Storage stability of the crystalline salt (HPLC area, Raman, appearance); type: physicochemical; conditions: for Storage stability (general statement): crystalline forms disclosed; for HPLC area reference value: reference value against which the HPLC area after 1 week at 60° C./75% r.h. is compared
Experimental: FT-Raman Spectroscopy: Bruker RFS100. Nd:YAG 1064 nm excitation, 100 mW laser power, Ge-detector, 64 scans, range 25-3500 cm^−1, […].
HPLC: HPLC measurement were carried out with a HP LC1090M, Column Symmetry C18, 3.0·150 mm.

[3] = stored 1 week at 60° C. and about 75% r.h. in an open container
[4] = approximate, double distilled water added stepwise to 5 mg substance, sonification
[5] = storage for 1 week at 100° C. in a closed ampoule
[6] = stored 1 week at 60° C. and about 75% r.h. in a closed container

Compound: CC(C)COc1ccc(CNC(=O)N(Cc2ccc(F)cc2)C2CCN(C)CC2)cc1 [Example 2, N-(4-fluorobenzyl)-N-(1-methylpiperidin-4-yl)-N′-(4-(2-methylpropyloxy)phenylmethyl)carbamide citrate]
- Solubility in aqueous systems (general statement) ([1]; aqueous systems): very soluble
- solubility at 2 min ([1]; thermodynamic from solid, approximate, double distilled water added stepwise to 5 mg substance, sonification): ~14 mg/mL
- Storage stability (general statement) [2]: good storage stability
- HPLC area reference value [2]: 99.9%
- HPLC area after storage [2, 3]: 99.4%
- State of crystalline powder after storage [2, 3]: substantially unchanged

Compound: CC(C)COc1ccc(CNC(=O)N(Cc2ccc(F)cc2)C2CCN(C)CC2)cc1.O=C(O)/C=C/C(=O)O [Example 3, N-(4-fluorobenzyl)-N-(1-methylpiperidin-4-yl)-N′-(4-(2-methylpropyloxy)phenylmethyl)carbamide fumarate]
- Solubility in water [1, 4]: > 500 mg/mL
- HPLC area reference value [2]: 99.4%
- Changes on storage detected with Raman spectroscopy ([2]; storage at 75% r.h. in an open container): changes of the substance after 3 days
- HPLC area after storage [2, 3]: 96.7%
- State of crystalline powder after storage [2, 3]: substantially unchanged

Compound: CC(C)COc1ccc(CNC(=O)N(Cc2ccc(F)cc2)C2CCN(C)CC2)cc1 [Example 7, N-(4-fluorobenzyl)-N-(1-methylpiperidin-4-yl)-N′-(4-(2-methylpropyloxy)phenylmethyl)carbamide succinate]
- Solubility in water [1, 4]: > 500 mg/mL

Next, values leading:

- Solubility in water [1, 4]: > 250 mg/mL
Compound: CC(C)COc1ccc(CNC(=O)N(Cc2ccc(F)cc2)C2CCN(C)CC2)cc1 [Example 6, N-(4-fluorobenzyl)-N-(1-methylpiperidin-4-yl)-N′-(4-(2-methylpropyloxy)phenylmethyl)carbamide phosphate]

- Solubility in water [1, 4]: 4 mg/mL (≈ 9.36 mM)
- Storage stability (general statement) [2]: good storage stability
- HPLC area reference value [2]: 96.8%
- HPLC area after storage [2, 5]: 97.4%
- State of crystalline product after storage [2, 5]: does not decompose
- HPLC area after storage [2, 6]: 97.4%
- State of crystalline powder after storage [2, 6]: remains a white powder
Compound: CC(C)COc1ccc(CNC(=O)N(Cc2ccc(F)cc2)C2CCN(C)CC2)cc1 [Example 9, N-(4-fluorobenzyl)-N-(1-methylpiperidin-4-yl)-N′-(4-(2-methylpropyloxy)phenylmethyl)carbamide edisylate]

- Solubility in water [1, 4]: > 500 mg/mL
Compound: CC(C)COc1ccc(CNC(=O)N(Cc2ccc(F)cc2)C2CCN(C)CC2)cc1 [Example 5, N-(4-fluorobenzyl)-N-(1-methylpiperidin-4-yl)-N′-(4-(2-methylpropyloxy)phenylmethyl)carbamide malate]

- Solubility in water [1, 4]: > 500 mg/mL
Compound: CC(C)COc1ccc(CNC(=O)N(Cc2ccc(F)cc2)C2CCN(C)CC2)cc1 [Example 4, N-(4-fluorobenzyl)-N-(1-methylpiperidin-4-yl)-N′-(4-(2-methylpropyloxy)phenylmethyl)carbamide maleate]
